Laboratory results taken from US9340575B2, “Agonists and antagonists of the urotensinergic system” (INSTITUT NATIONAL DE LA RECHERCHE SCIENTIFIQUE, priority 2011, dated 2016).
Read-outs that look alike come from different tables or passages of the source. Marks after values point to notes of the source that are not given here.

Experiments:
rat thoracic aorta rings = format: cell-based; settings: for Aortic Ring contraction pEC50: endothelium-denuded rat thoracic aorta; for Aortic Ring contraction Emax (%), maximum efficacy at 10^−5.5M: percentage of KCl (40 mM) contraction; for Aortic Ring contraction Emax (%): percentage of contraction induced by KCl (40 mM)
Method: Binding and functional experiments were performed at least in triplicate and data, expressed as mean±S.E.M, were analyzed using the Prism software (Graph Pad Software, San Diego, Calif.). In all experiments, n represents the total number of animals studied or individual assays performed. The EC50, pEC50, pIC50 values as well as the Emax value were determined from the concentration-response curves using a sigmoidal dose-response fit with variable slope. […] The slope is calculated from the double reciprocal plot of equiactive concentrations of agonist in the presence and absence of antagonist.

[1] = molecular target: T1, human urotensin II receptor (UT) (Homo sapiens, UniProt Q9UKP6); experiment: Competitive radioligand binding on CHO-UT cells
T1 construct: expressed in transfected cells; host or cells: CHO cells (CHO-UT), stably transfected, G418 selection
T1 sequence (Q9UKP6 1-389): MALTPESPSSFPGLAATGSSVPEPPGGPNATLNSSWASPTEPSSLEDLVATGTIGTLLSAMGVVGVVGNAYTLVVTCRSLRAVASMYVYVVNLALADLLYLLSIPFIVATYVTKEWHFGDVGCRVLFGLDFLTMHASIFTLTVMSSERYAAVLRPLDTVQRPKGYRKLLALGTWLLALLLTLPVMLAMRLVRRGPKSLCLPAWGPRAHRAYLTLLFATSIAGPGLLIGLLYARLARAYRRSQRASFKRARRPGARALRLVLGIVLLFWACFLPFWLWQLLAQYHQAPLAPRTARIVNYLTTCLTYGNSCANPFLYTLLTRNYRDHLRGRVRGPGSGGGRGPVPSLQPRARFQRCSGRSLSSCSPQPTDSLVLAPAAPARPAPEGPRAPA
Method: Transfected CHO cells expressing the human urotensin receptor (CHO-UT) were maintained in Ham-F12 medium with 10% fetal bovine serum (FBS), 2 mM L-glutamine, 100 UI/mL each of penicillin and streptomycin, and 400 μg/mL G418. […] Binding assays were following known literature procedures using CHO cells stably transfected with hGPR14. […] After 90 min of incubation at room temperature, cells were washed, lysed, and the cell-bound radioactivity was quantified using a γ-counter. […] The cells were then washed, lysed, and the radioactivity counted on a γ-counter (1470 Automatic Gamma Counter, Perkin Elmer). Binding and functional experiments were performed at least in triplicate and data, expressed as mean±S.E.M, were analyzed using the Prism software (Graph Pad Software, San Diego, Calif.). In all experiments, n represents the total number of animals studied or individual assays performed. The EC50, pEC50, pIC50 values as well as the Emax value were determined from the concentration-response curves using a sigmoidal dose-response fit with variable slope. […] The slope is calculated from the double reciprocal plot of equiactive concentrations of agonist in the presence and absence of antagonist.

anaesthetized rats = experiment: Hemodynamic assessment (arterial blood pressure) in anaesthetized rats; format: in vivo, rat; settings: for Hemodynamic response to bolus i.v. injection / Time of hypotension nadir / Time of pressor phase peak: 0.01 μmol/kg i.v.; for Response to repeated injections: 10 nmol/kg twice, 30 min interval
Method: Male Sprague-Dawley rats, weighing 350-400 g, were anaesthetized by isoflurane inhalation delivered in 100% oxygen (1 l/min) from an Ohmeda Tec 4 anaesthetic vaporizer (Somatechnology, Inc., Bloomfield, Conn., USA). Anaesthesia was maintained by mask inhalation of isoflurane vaporized at concentrations of up to 3% in the induction phase, at 1.5% during acute surgical procedures and at 0.8-1.0% during experimental observations. […]. […] A period of stabilisation of 30 min was observed and the following experimental protocols were then performed and arterial blood pressure was evaluated. During isoflurane inhalation, no breathing complications or changes in blood pressure were observed. […].
In a preliminary study, individual rats received a single i.v. injection of hUII ranging from 1 to 30 nmol/kg. A dose-response curve, reflecting the effect of hUII on the change in blood pressure, was then determined.
In this set of experiments, five groups of rats were used. […] […]. Hemodynamic changes were continuously captured by the pressure probe over a period of 1 h. The maximum rise and the maximum drop in blood pressure was determined and analyzed using the PowerLab software (ADInstruments, Colorado Springs, Colo., USA).
In the control group, the rats received two doses of hUII (10 nmol/kg) with a 30 min interval between the first and second injection.

[2] = 125I-hUII 0.2 nM, CHO-UT cells, 95% confidence limits in parentheses, read-out: Binding IC50

Row | EC50 (rat thoracic aorta rings) [nM] | Aortic Ring contraction pEC50 (rat thoracic aorta rings) | Binding affinity for UT (in words) [1] | Compound | Aortic Ring contraction Emax (%) (rat thoracic aorta rings) | further results
1 | > 1000 | <6 | dramatic loss of binding affinity | CC(C)[C@H](NC(=O)[C@@H]1CSSC[C@H](NC(=O)[C@H](C)N)C(=O)N[C@@H](Cc2ccccc2)C(=O)N2Cc3ccccc3C[C@H]2C(=O)N[C@@H](CCCCN)C(=O)N[C@@H](Cc2ccc(O)cc2)C(=O)N1)C(=O)O [Compound 18, H-Ala-Cys-Phe-Tic-Lys-Tyr-Cys-Val-OH] |  | Aortic Ring contraction Emax (%), maximum efficacy at 10^−5.5M (rat thoracic aorta rings): 43%
2 | 117 | 6.93 ± 0.09 | high binding affinity | CC(C)[C@H](NC(=O)[C@@H]1CSSC[C@H](NC(=O)[C@H](C)N)C(=O)N[C@@H](Cc2ccccc2)C(=O)N[C@H](c2ccccc2)C(=O)N[C@@H](CCCCN)C(=O)N[C@@H](Cc2ccc(O)cc2)C(=O)N1)C(=O)O [Compound 15, [D-Phg^4]URP] | 116 ± 5 | IC50 [1, 2]: 29 nM
3 |  |  |  | CC(C)[C@H](NC(=O)[C@@H]1CSSC(C)(C)[C@H](NC(=O)[C@H](C)N)C(=O)N[C@@H](Cc2ccccc2)C(=O)N2CCc3ccccc3[C@H]2C(=O)N[C@@H](CCCCN)C(=O)N[C@@H](Cc2ccc(O)cc2)C(=O)N1)C(=O)O [Compound 20, H-Ala-Pen-Phe-Tiq-Lys-Tyr-Cys-Val-OH] |  | IC50 [1, 2]: > 10000 nM
4 | 22 | 7.66 ± 0.11 | high binding affinity | CC(C)[C@H](NC(=O)[C@@H]1CSSC[C@H](NC(=O)[C@H](C)N)C(=O)N[C@@H](Cc2ccccc2)C(=O)N2CCc3ccccc3[C@H]2C(=O)N[C@@H](CCCCN)C(=O)N[C@@H](Cc2ccc(O)cc2)C(=O)N1)C(=O)O [Compound 16, H-Ala-Cys-Phe-Tiq-Lys-Tyr-Cys-Val-OH] | 126 ± 5 | Agonist behaviour in aortic ring contraction (in words) (rat thoracic aorta rings): contractile efficacy and potency comparable to the endogenous peptides
5 | 7 | 8.09±0.18 | high affinity | CC(C)[C@H](NC(=O)[C@@H]1CSSC[C@H](NC(=O)[C@H](C)N)C(=O)N[C@@H](Cc2ccccc2)C(=O)N[C@@H](Cc2c[nH]c3ccccc23)C(=O)N[C@@H](CCCCN)C(=O)N[C@@H](Cc2ccc(O)cc2)C(=O)N1)C(=O)O [Compound 2, reference compound] | 100±6 | Hemodynamic response to bolus i.v. injection (anaesthetized rats): biphasic hemodynamic response; Time of hypotension nadir (anaesthetized rats): ~6 min; Time of pressor phase peak (anaesthetized rats): ~1 min; Response to repeated injections (anaesthetized rats): equivalent biphasic responses; Effect of prior URP injection on hUII hemodynamic response (anaesthetized rats; hUII 30 min after URP bolus, 10 nmol/kg): such observation was not made; IC50 ([1]; Binding (125I-URP) IC50 (nM), radioligand 125I-URP, recombinant human UT): 31.8 nM; IC50 ([1]; Binding (125I-hUII) IC50 (nM), radioligand 125I-hUII, recombinant human UT): 12.4 nM; Binding (125I-hUII) pIC50 ([1]; radioligand 125I-hUII, recombinant human UT): 7.90 ± 0.11
6 | > 1000 | <6 |  | CC(C)[C@H](NC(=O)[C@@H]1CSSC[C@H](NC(=O)[C@H](C)N)C(=O)N[C@@H](Cc2ccccc2)C(=O)N[C@@H](CC2CCCCC2)C(=O)N[C@@H](CCCCN)C(=O)N[C@@H](Cc2ccc(O)cc2)C(=O)N1)C(=O)O [Compound 6, H-Ala-Cys-Phe-Cha-Lys-Tyr-Cys-Val-OH] |  | Agonist behaviour in aortic ring contraction (in words) (rat thoracic aorta rings): full but weak agonist; Aortic Ring contraction Emax (%), maximum efficacy at 10^−5.5M (rat thoracic aorta rings): 77^d %; Reduction in binding affinity compared to compound 5 ([1]; versus compound 5): 3 fold
7 |  |  | high affinity for UT | CC(C)[C@H](NC(=O)[C@@H]1CSSC[C@H](NC(=O)[C@H](C)N)C(=O)N[C@@H](Cc2ccccc2)C(=O)N2Cc3[nH]c4ccccc4c3C[C@H]2C(=O)N[C@@H](CCCCN)C(=O)N[C@@H](Cc2ccc(O)cc2)C(=O)N1)C(=O)O [Compound 10, H-Ala-Cys-Phe-Tpi-Lys-Tyr-Cys-Val-OH] | 139 ± 17 | Agonist behaviour in aortic ring contraction (in words) (rat thoracic aorta rings): vasoconstriction comparable to hUII or URP with however a slightly reduced potency
8 | 251 | 6.60 ± 0.15 | high binding affinity | CC(C)[C@H](NC(=O)[C@@H]1CSSC[C@H](NC(=O)[C@H](C)N)C(=O)N[C@@H](Cc2ccccc2)C(=O)N[C@@H](c2ccccc2)C(=O)N[C@@H](CCCCN)C(=O)N[C@@H](Cc2ccc(O)cc2)C(=O)N1)C(=O)O [Compound 14, H-Ala-Cys-Phe-Phg-Lys-Tyr-Cys-Val-OH] | 102 ± 9 | IC50 [1, 2]: 29 nM
9 | 181 | 6.42 ± 0.13 | low binding affinity | CC(C)[C@H](NC(=O)[C@@H]1CSSC[C@H](NC(=O)[C@H](C)N)C(=O)N[C@@H](Cc2ccccc2)C(=O)N[C@H]2Cc3c([nH]c4ccccc34)CN(C2=O)[C@@H](CCCCN)C(=O)N[C@@H](Cc2ccc(O)cc2)C(=O)N1)C(=O)O [Compound 12, H-Ala-Cys-Phe-Aia-Lys-Tyr-Cys-Val-OH] | 51 ± 4 | 
10 |  |  |  | CC(C)[C@H](NC(=O)[C@@H]1CSSC[C@H](NC(=O)[C@H](C)N)C(=O)N[C@@H](Cc2ccccc2)C(=O)N[C@@H](Cc2ccc(I)cc2)C(=O)N[C@@H](CCCCN)C(=O)N[C@@H](Cc2ccc(O)cc2)C(=O)N1)C(=O)O [Compound 5, H-Ala-Cys-Phe-Phe(I)-Lys-Tyr-Cys-Val-OH] |  | Drop in binding affinity on substitution of Trp ([1]; versus native peptide): 4 fold
11 | 1 | 9.08 ± 0.25 |  | CC(C)[C@H](NC(=O)[C@@H]1CSSC[C@H](NC(=O)[C@H](CC(=O)O)NC(=O)[C@@H]2CCCN2C(=O)[C@@H](NC(=O)[C@@H](N)CCC(=O)O)[C@@H](C)O)C(=O)N[C@@H](Cc2ccccc2)C(=O)N[C@@H](Cc2c[nH]c3ccccc23)C(=O)N[C@@H](CCCCN)C(=O)N[C@@H](Cc2ccc(O)cc2)C(=O)N1)C(=O)O [Compound 1, reference compound] | 117 ± 7 | Hemodynamic response to bolus i.v. injection (anaesthetized rats): biphasic hemodynamic response; Time of hypotension nadir (anaesthetized rats): ~6 min; Time of pressor phase peak (anaesthetized rats): ~1 min; Response to repeated injections (anaesthetized rats): equivalent biphasic responses; Effect of prior hUII injection on hypotensive effect of URP (anaesthetized rats; URP injected 30 min after hUII, 10 nmol/kg): significantly reduced; Dose giving the most significant drop in blood pressure (anaesthetized rats; single i.v. injection, 1 to 30 nmol/kg tested): 10 nmol/kg; Aortic Ring contraction pEC50 (rat thoracic aorta rings; listed as hUII): 8.98±0.21; Aortic Ring contraction Emax (%) (rat thoracic aorta rings; listed as hUII): 124±8%
